Here are results for one compound from patent US20240116845A1, “INDENE COMPOUNDS, PHARMACEUTICAL COMPOSITIONS THEREOF, AND THEIR THERAPEUTIC APPLICATIONS” (NucMito Pharmaceuticals Co., Ltd., priority 2021, published 2024).

Holding throughout (assay type): cell-based
The test system of assay [1] is A431 (epidermoid carcinoma). Description: Antiproliferative activity, CCK-8 cell viability. The following applies: Homo sapiens, A-431, 72 h, read-out: Inhibition of Cancerous Cells, A431. Summed up:
(§1)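 Viability relative to DMSO controls came from CCK-8 absorbance at 450 nm after 72 h exposure at 37°C. Compound concentrations were 3.3, 10 or 30 μM, in DMEM plus 10% FBS. Results are categorised by inhibition level: at least 50%, 30 to under 50%, or under 30%.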

Assay [2] concerns MDA-MB-231 (breast cancer). Kind of assay: Antiproliferative activity, CCK-8 cell viability. The following applies: Homo sapiens, 72 h, read-out: Inhibition of Cancerous Cells, MDA-MB-231. In a few lines:
as §1

For the next assay, the system named is HepG2 (liver cancer). Description: Antiproliferative activity, CCK-8 cell viability. To be noted: Homo sapiens, 72 h, read-out: Inhibition of Cancerous Cells, HepG2. Summed up: as §1
Assay [3] concerns B16F10 (malignant melanoma). Kind of assay: Antiproliferative activity, CCK-8 cell viability. To be noted: Mus musculus, B16-F10, 72 h, read-out: Inhibition of Cancerous Cells, B16F10. Summed up: as §1
Assay [4] deals with A549 (lung adenocarcinoma). Kind of assay: Antiproliferative activity, CCK-8 cell viability. To be noted: Homo sapiens, 72 h, read-out: Inhibition of Cancerous Cells, A549.
A further assay relates to HeLa (cervical cancer). Kind of assay: Antiproliferative activity, CCK-8 cell viability. The following applies: Homo sapiens, 72 h, read-out: Inhibition of Cancerous Cells, HELA.
The test system of another assay is SW480 (colon cancer). Description: Antiproliferative activity, CCK-8 cell viability. To be noted: Homo sapiens, 72 h, read-out: Inhibition of Cancerous Cells, SW480. In a few lines:
as §1

Assay [5] deals with alpha-smooth muscle actin (α-SMA). Kind of assay: Inhibition of TGF-β induced expression of alpha-smooth muscle actin in CFSC cells (western blot). To be noted: compound at 10 μM, TGF-β (10 ng/mL), 24 hours. Summed up: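 Read-out is percent decrease in α-SMA western-blot band intensity, β-actin also probed, relative to TGF-β-only cells. CFSC cells were co-treated for 24 h at 37 °C with 10 ng/mL TGF-β and 10 μM compound in serum-free DMEM.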
(In western blotting, separated proteins are transferred to a membrane and probed.)

The mark [6] stands for this setting: compound concentration of 3.3 μM.
[7] abbreviates: compound concentration of 10 μM.
The mark [8] stands for this setting: compound concentration of 30 μM.

Structures are written as SMILES.

Broadly, the inhibition is how much of the control response was suppressed. For the compound `O=C(O)CC1=C/C(=C/c2ccc(Oc3ccc(F)cc3)cc2)c2ccc(F)cc21` [Compound D33, 2-[(1Z)-5-Fluoro-1-{[4-(4-fluorophenoxy)phenyl]methylidene}-1H-inden-3-yl]acetic acid], the inhibition at 3.3 µM is below 30% in assay [1] (setting [6]); at least 50% in assay [2] (setting [6]); at least 50% with HepG2 (liver cancer) (setting [6]); 30 to 50% in assay [3] (setting [6]); 30 to 50% in assay [4] (setting [6]); 30 to 50% in the assay on HeLa (cervical cancer) (setting [6]). Also, the inhibition at 3.3 µM in the assay with SW480 (colon cancer) (setting [6]) is 30 to 50%. Besides, the inhibition at 10 µM in assay [1] (setting [7]) is 30 to 50%; in assay [2] (setting [7]), at least 50%; in the assay with HepG2 (liver cancer) (setting [7]), at least 50%; in assay [3] (setting [7]), at least 50%; in assay [4] (setting [7]) it was 30 to 50%; in the assay with HeLa (cervical cancer) (setting [7]) it was below 30%. The inhibition at 10 µM in the assay with SW480 (colon cancer) (setting [7]) was at least 50%; in assay [5], below 30%. The inhibition at 30 µM (in assay [1] (setting [8]); in assay [2] (setting [8]); in the assay on HepG2 (liver cancer) (setting [8]); in assay [3] (setting [8]); in assay [4] (setting [8]); in the assay on HeLa (cervical cancer) (setting [8])) was at least 50% each time. Also, in the assay on SW480 (colon cancer) (setting [8]), the inhibition at 30 µM is at least 50%.
